# Data from ChEMBL document CHEMBL1201862, “PubChem BioAssay data set” (2004).
#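 A five-concentration, 48-hour dose response in 96-well plates underlies each endpoint, interpolated linearly between surrounding concentrations. GI50 is the concentration that inhibits growth by half.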 Activity calls are given as the source filed them. Cut-off read from the data, not from the text of the source: active = GI50 up to about 1.1 µM and inactive = higher.
# Assays:
# Assay in all cases: inhibition of tumour cell growth, NCI panel, 48 h
# Hs-578T = system: Hs-578T
# KM12 = system: KM12
# OVCAR-8 = system: OVCAR-8
# T47D = system: T47D
# NCI-H460 = system: NCI-H460
# HT-29 = system: HT-29
# M14 = system: M14
# SF-539 = system: SF-539
# RXF 393 = system: RXF 393
# COLO 205 = system: COLO 205
# OVCAR-4 = system: OVCAR-4
# OVCAR-5 = system: OVCAR-5
# HCT-116 = system: HCT-116
# A549 = system: A549
# LOX IMVI = system: LOX IMVI
# CCRF-CEM = system: CCRF-CEM
# UACC-257 = system: UACC-257
# KM-20L2 = system: KM-20L2
# DMS-273 = system: DMS-273
# LXFL 529 = system: LXFL 529
SMILES,GI50 (Hs-578T),GI50 (KM12),GI50 (OVCAR-8),GI50 (T47D),GI50 (NCI-H460),GI50 (HT-29),GI50 (M14),GI50 (SF-539),GI50 (RXF 393),GI50 (COLO 205),GI50 (OVCAR-4),GI50 (OVCAR-5),GI50 (HCT-116),GI50 (A549),GI50 (LOX IMVI),GI50 (CCRF-CEM),GI50 (UACC-257),GI50 (KM-20L2),GI50 (DMS-273),GI50 (LXFL 529)
C[C@H]1CC(=O)C[C@@H]2CC[C@@H]3[C@H](CC[C@]4(C)C(OC(=O)c5cccc6c(=O)c7ccccc7[nH]c56)CC[C@@H]34)[C@]21C (stereo partly drawn),46.8 µM (inactive),30.4 µM (inactive),23.8 µM (inactive),32.7 µM (inactive),26.7 µM (inactive),32.5 µM (inactive),30.6 µM (inactive),> 100 µM (inactive),39.2 µM (inactive),22 µM (inactive),26.1 µM (inactive),> 100 µM (inactive),33.3 µM (inactive),23.2 µM (inactive),31.2 µM (inactive),23.8 µM (inactive),32.6 µM (inactive),–,–,–
C[C@]12CCC3c4ccc(O)cc4CC[C@H]3C1CC(=O)N(CCN1CCCC1)C2=O (stereo partly drawn),> 10 µM (inactive),> 10 µM (inactive),> 10 µM (inactive),> 10 µM (inactive),> 10 µM (inactive),> 10 µM (inactive),> 10 µM (inactive),> 10 µM (inactive),> 10 µM (inactive),> 10 µM (inactive),> 10 µM (inactive),> 10 µM (inactive),> 10 µM (inactive),> 10 µM (inactive),> 10 µM (inactive),> 10 µM (inactive),> 10 µM (inactive),–,–,–
COCN1COCN(C)C1=O,–,> 100 µM (inactive),> 100 µM (inactive),–,> 100 µM (inactive),> 100 µM (inactive),> 100 µM (inactive),> 100 µM (inactive),–,> 100 µM (inactive),> 100 µM (inactive),> 100 µM (inactive),> 100 µM (inactive),> 100 µM (inactive),> 100 µM (inactive),> 100 µM (inactive),> 100 µM (inactive),> 100 µM (inactive),> 100 µM (inactive),–
CC[C@@]1(O)CC(OC2CC(N3CCOCC3)C(O)C(C)O2)c2c(O)c3c(c(O)c2[C@H]1O)C(=O)c1cccc(O)c1C3=O (stereo partly drawn),0.348 µM (active),0.182 µM (active),0.0904 µM (active),0.179 µM (active),0.00686 µM (active),0.0902 µM (active),0.356 µM (active),0.103 µM (active),0.196 µM (active),0.0847 µM (active),0.231 µM (active),0.371 µM (active),0.0519 µM (active),0.0267 µM (active),0.0644 µM (active),0.0379 µM (active),0.214 µM (active),0.191 µM (active),0.0358 µM (active),–
CCCCCCCCCC(=O)NC(Cc1ccc(O)cc1)C(=O)NCCCNCCCCNCCCNC(=O)[C@@H](N)CCCN=C(N)N (stereo partly drawn),–,20.9 µM (inactive),33.6 µM (inactive),–,15.5 µM (inactive),> 100 µM (inactive),> 100 µM (inactive),11 µM (inactive),–,13.8 µM (inactive),–,–,> 100 µM (inactive),76 µM (inactive),84.1 µM (inactive),84.9 µM (inactive),44.5 µM (inactive),> 100 µM (inactive),20.9 µM (inactive),77.3 µM (inactive)
CCOC(=O)Nc1ccc(S(=O)(=O)OC)cc1.CCOC(=O)Nc1ccc(S(=O)(=O)OC)cc1.Nc1ncnc2c1ncn2C1OC(CO)C(O)C1O (stereo not drawn),–,99.8 µM (inactive),> 100 µM (inactive),–,> 100 µM (inactive),26.3 µM (inactive),> 100 µM (inactive),> 100 µM (inactive),–,49 µM (inactive),35.3 µM (inactive),> 100 µM (inactive),17.5 µM (inactive),34.3 µM (inactive),17.8 µM (inactive),20.6 µM (inactive),39.6 µM (inactive),> 100 µM (inactive),30.8 µM (inactive),> 100 µM (inactive)
O=S(=O)(N/C(=N\O)Nc1ccc(Cl)cc1)c1cc2ccccc2o1,20.4 µM (inactive),13.2 µM (inactive),18.1 µM (inactive),> 100 µM (inactive),38.7 µM (inactive),22.9 µM (inactive),21.2 µM (inactive),33.9 µM (inactive),34.8 µM (inactive),22.6 µM (inactive),17.9 µM (inactive),23.6 µM (inactive),11.4 µM (inactive),26.1 µM (inactive),11.5 µM (inactive),22.1 µM (inactive),19.5 µM (inactive),–,–,–
CSc1c([S+](C)[O-])[nH]c2cc(Br)cc(Br)c12 (stereo not drawn),–,24.6 µM (inactive),22 µM (inactive),–,16.7 µM (inactive),26.9 µM (inactive),25.6 µM (inactive),22.4 µM (inactive),14 µM (inactive),18 µM (inactive),–,–,17.6 µM (inactive),24 µM (inactive),16.2 µM (inactive),22.2 µM (inactive),33.3 µM (inactive),–,16.4 µM (inactive),21.1 µM (inactive)
